Test results as given in publication PMC5278707, “Structure-Activity Relationships of a Series of Echinocandins and the Discovery of CD101, a Highly Stable and Soluble Echinocandin with Distinctive Pharmacokinetic Properties” (Antimicrobial Agents and Chemotherapy, 2017).
In brackets after ≈: the same amount, converted by molar mass. Like-named read-outs stand apart in the source and are kept apart here.

Legend:
[1] = system: Candida albicans ATCC 90028; test: CLSI broth microdilution (M27-A3) MIC; assay type: cell-based; settings: 50% reduction in growth
Experimental: (§1) All yeast and mold isolates were obtained from the American Type Culture Collection (ATCC). Isolates were plated on an agar medium to verify purity, and single colonies were picked. Aspergillus isolates were resubcultured on potato dextrose slants and incubated for 7 days at 35°C. Candida isolates were streaked on SDA plates and incubated for 24 h at 35°C. RPMI 1640 medium (HyClone Laboratories, Logan, UT) and the inoculum for each organism were prepared according to Clinical and Laboratory Standards Institute (CLSI) guidelines ([27][–][29]). Stock solutions for all test articles were prepared in 100% dimethyl sulfoxide (DMSO). Susceptibility testing was performed using CLSI broth microdilution methods for Candida (M27-A3) and Aspergillus (M38-A2). Amphotericin B was tested at a range of 0.06 to 64 μg/ml; all other antifungal agents were tested at 0.015 to 16 μg/ml. Plates were incubated at 35°C and were read from the bottom using a plate viewer after 24 and 48 h for Candida and after 48 h for Aspergillus. MIC values are reported as the lowest drug concentration to yield a 50% reduction in the growth of Candida species tested compared to the control well. Minimum effective concentration (MEC) values are reported as the lowest drug concentration to yield the stunted hyphal growth of Aspergillus species tested compared to that of the control well.

[2] = system: Candida glabrata ATCC 90030; test: CLSI broth microdilution (M27-A3) MIC; assay type: cell-based; settings: Nakaseomyces glabratus
Experimental: as §1

[3] = system: Candida guilliermondii ATCC 34134; test: CLSI broth microdilution (M27-A3) MIC; assay type: cell-based; settings: Meyerozyma guilliermondii, ATCC34134, 50% reduction in growth
Experimental: as §1

[4] = system: Candida krusei ATCC 14243; test: CLSI broth microdilution (M27-A3) MIC; assay type: cell-based; settings: Pichia kudriavzevii, ATCC14243, 50% reduction in growth
Experimental: as §1

[5] = system: Candida lusitaniae ATCC 34134; test: CLSI broth microdilution (M27-A3) MIC; assay type: cell-based; settings: Clavispora lusitaniae, ATCC34134, 50% reduction in growth, read-out: MIC
Experimental: as §1

[6] = system: Candida parapsilosis ATCC 22019; test: CLSI broth microdilution (M27-A3) MIC; assay type: cell-based; settings: Lodderomyces parapsilosis, ATCC22019, 50% reduction in growth
Experimental: as §1

[7] = system: Candida tropicalis ATCC 90874; test: CLSI broth microdilution (M27-A3) MIC; assay type: cell-based; settings: 50% reduction in growth
Experimental: as §1

[8] = system: Aspergillus candidus ATCC 13686; test: CLSI broth microdilution (M38-A2) MEC/MIC; assay type: cell-based
Experimental: as §1

[9] = system: Aspergillus flavus ATCC 22546; test: CLSI broth microdilution (M38-A2) MEC/MIC; assay type: cell-based
Experimental: as §1

[10] = system: Aspergillus fumigatus ATCC 204305; test: CLSI broth microdilution (M38-A2) MEC/MIC; assay type: cell-based
Experimental: as §1

[11] = system: Aspergillus fumigatus ATCC MYA-3626; test: CLSI broth microdilution (M38-A2) MEC/MIC; assay type: cell-based; settings: 48 h
Experimental: as §1

[12] = system: Aspergillus niger ATCC 16888; test: CLSI broth microdilution (M38-A2) MEC/MIC; assay type: cell-based
Experimental: as §1

[13] = system: Aspergillus ochraceus ATCC 96919; test: CLSI broth microdilution (M38-A2) MEC/MIC; assay type: cell-based
Experimental: as §1

[14] = system: Aspergillus clavatus ATCC 10058; test: CLSI broth microdilution (M38-A2) MEC/MIC; assay type: cell-based; settings: read at 68 h
Experimental: as §1, with “Plates were incubated at 35°C and were read from the bottom using a plate viewer after 24 and 48 h for Candida and after 48 h for Aspergillus.” left out

Aspergillus spp. = test: CLSI broth microdilution (M38-A2) MEC, whole panel; assay type: cell-based; settings: 48 h, summary of Table 3
Experimental: as §1

[15] = single-dose pharmacokinetics in beagle dogs; settings: male, beagle, dog, in vivo, iv, 1.4 mg/kg
Experimental: Four male, nonnaive beagle dogs received a single i.v. infusion (1.4 mg/kg) of test article over 10 min via a catheter placed in the cephalic vein. Blood draws (1.0 ml) were taken at 0.083, 0.33, 0.75, 1.5, 4.5, 12, 24, and 48 h. An additional blood draw at 72 h was obtained for CD101. Blood draws were taken from the jugular vein and were collected into K3 EDTA tubes. Following blood collection, the samples were immediately inverted several times and were held on wet ice pending centrifugation. The samples were centrifuged within ∼30 min of collection under refrigeration (∼5°C for ∼10 min at ∼2,000 g) to obtain plasma. The plasma samples were frozen immediately on dry ice after separation and were stored at approximately −70°C until analysis. Levels of test article in the plasma samples were measured by quantitative liquid chromatography-tandem mass spectrometry (LC-MS/MS) analysis compared to a calibration curve and an internal standard. Pharmacokinetic parameters were calculated from the plasma concentration-time data using standard noncompartmental methods and utilizing WinNonlin analysis software.

Candida albicans R303 = test: mouse model of disseminated candidiasis, fungal burden in kidneys; assay type: in vivo; settings: kidneys at 24 h; for fungal burden relative to limit of detection: neutropenic CD-1 mice, 0.5, 1.5 or 4.5 mg/kg; for reductions in fungal burden vs infected control (statistical significance): neutropenic CD-1 mice, 0.5, 1.5 or 4.5 mg/kg 2 h after inoculation
Experimental: Candida albicans R303 was grown on Sabouraud dextrose agar (SDA) plates for 24 h at 35°C. Colonies were transferred to phosphate-buffered saline (PBS) and diluted to 3.8 × 10^5 CFU/ml. Female CD-1 mice (Charles River Laboratories, Portage, MI) were rendered neutropenic via injection with cyclophosphamide (150 mg/kg) 5 days and 2 days prior to inoculation. Each animal was infected by injecting 0.1 ml of inoculum into the tail vein. In the treatment groups, animals received 0.5, 1.5, or 4.5 mg/kg of test article 2 h after inoculation. Two groups of untreated, infected controls were used to evaluate fungal burden: at 2 h when test articles were administered in the treatment groups and at 24 h when the treatment groups were sacrificed. Kidneys were harvested at 2 h in one untreated control group and at 24 h in all other groups. The kidneys were homogenized in 2 ml of sterile phosphate-buffered saline, and 0.1-ml aliquots were spread on SDA plates and incubated at 35°C overnight. Fungal burden was determined based on the log10 C. albicans CFU counts from paired kidneys. Data were analyzed using a one-way analysis of variance (ANOVA) and the Dunnett multiple comparisons test comparing the test articles to the infected control group (GraphPad InStat version 3.1; GraphPad Software, San Diego, CA).

Compound | MIC ([1]; ATCC90028, 24 h) | MIC ([1]; ATCC90028, 48 h) | MIC ([3]; 24 h) | MIC ([3]; 48 h) | MIC ([4]; 24 h) | MIC ([4]; 48 h) | MIC ([5]; 24 h) | MIC ([5]; 48 h) | MIC ([6]; 24 h) | MIC ([6]; 48 h) | MIC ([7]; ATCC90874, 24 h) | MIC ([7]; ATCC90874, 48 h) | Vd [15] | half-life [15] | fungal burden relative to limit of detection (Candida albicans R303) | reductions in fungal burden vs infected control (statistical significance) (Candida albicans R303) | further results
C[C@@H]1[C@H](O)[C@@H](C)/C=C/C=C/C=C/C=C/C=C/C=C/C=C/[C@H](O[C@@H]2O[C@H](C)[C@@H](O)[C@H](N)[C@@H]2O)C[C@@H]2O[C@](O)(C[C@@H](O)C[C@@H](O)[C@H](O)CC[C@@H](O)C[C@@H](O)CC(=O)O[C@H]1C)C[C@H](O)[C@H]2C(=O)O [Amphotericin B, amphotericin B] | ≤ 0.06 µg/mL | 0.125 µg/mL (≈ 0.135 µM) | ≤ 0.06 µg/mL | ≤ 0.06 µg/mL | 0.25 µg/mL (≈ 0.271 µM) | 0.5 µg/mL (≈ 0.541 µM) | ≤ 0.06 µg/mL | ≤ 0.06 µg/mL | 0.25 µg/mL (≈ 0.271 µM) | 0.5 µg/mL (≈ 0.541 µM) | 0.25 µg/mL (≈ 0.271 µM) | 0.25 µg/mL (≈ 0.271 µM) |  |  |  |  | MIC ([2]; ATCC90030, 24 h, 50% reduction in growth, read-out: MIC): 0.06 µg/mL (≈ 0.0649 µM); MIC ([2]; ATCC90030, 48 h, 50% reduction in growth, read-out: MIC): 0.25 µg/mL (≈ 0.271 µM); MIC ([8]; Aspergillus candidus, ATCC13686, 48 h): ≤ 0.06 µg/mL; MIC ([9]; Aspergillus flavus, ATCC22546, 48 h): 1 µg/mL (≈ 1.08 µM); MIC ([10]; Aspergillus fumigatus, ATCC204305, 48 h): 1 µg/mL (≈ 1.08 µM); MIC ([11]; Aspergillus fumigatus): 1 µg/mL (≈ 1.08 µM); MIC ([12]; Aspergillus niger, ATCC16888, 48 h): 0.125 µg/mL (≈ 0.135 µM); MIC ([13]; Aspergillus ochraceus, ATCC96919, 48 h): 2 µg/mL (≈ 2.16 µM); MIC ([14]; Aspergillus clavatus, ATCC10058): ≤ 0.06 µg/mL
CC[C@H](C)C[C@H](C)CCCCCCCCC(=O)N[C@H]1C[C@@H](O)[C@@H](NCCN)NC(=O)[C@@H]2[C@@H](O)CCN2C(=O)[C@H]([C@H](O)CCN)NC(=O)[C@H]([C@H](O)[C@@H](O)c2ccc(O)cc2)NC(=O)[C@@H]2C[C@@H](O)CN2C(=O)[C@H]([C@@H](C)O)NC1=O [Caspofungin, caspofungin] | 0.06 µg/mL (≈ 0.0549 µM) | 0.06 µg/mL (≈ 0.0549 µM) | 0.25 µg/mL (≈ 0.229 µM) | > 16 µg/mL | 0.25 µg/mL (≈ 0.229 µM) | 0.5 µg/mL (≈ 0.457 µM) | 0.25 µg/mL (≈ 0.229 µM) | 0.25 µg/mL (≈ 0.229 µM) | 0.25 µg/mL (≈ 0.229 µM) | 0.5 µg/mL (≈ 0.457 µM) | 0.06 µg/mL (≈ 0.0549 µM) | 0.06 µg/mL (≈ 0.0549 µM) |  |  |  |  | MIC ([2]; ATCC90030, 24 h): 0.125 µg/mL (≈ 0.114 µM); MIC ([2]; ATCC90030, 48 h): 0.125 µg/mL (≈ 0.114 µM); MEC ([8]; 48 h, stunted hyphal growth): ≤0.015 µg/mL; MEC ([9]; 48 h, stunted hyphal growth): 0.06 µg/mL; MEC ([10]; 48 h, stunted hyphal growth): 0.125 µg/mL; MEC ([11]; stunted hyphal growth): 0.125 µg/mL; MEC ([12]; 48 h, stunted hyphal growth): 0.06 µg/mL; MEC ([13]; 48 h, stunted hyphal growth): 0.06 µg/mL; MEC ([14]; stunted hyphal growth): 0.125 µg/mL; MEC values against all Aspergillus species tested (Aspergillus spp.): ≤ 0.125 µg/mL
CCCCCOc1ccc(-c2ccc(-c3ccc(C(=O)N[C@H]4C[C@@H](O)[C@@H](OCCOCCOC)NC(=O)[C@@H]5[C@@H](O)[C@@H](C)CN5C(=O)[C@H]([C@@H](C)O)NC(=O)[C@H]([C@H](O)[C@@H](O)c5ccc(O)cc5)NC(=O)[C@@H]5C[C@@H](O)CN5C(=O)[C@H]([C@@H](C)O)NC4=O)cc3)cc2)cc1 [Compound 2] |  |  |  |  |  |  |  |  |  |  |  |  | 0.331 L/kg | 18.9 h |  |  | 
CCCCCOc1ccc(-c2ccc(-c3ccc(C(=O)N[C@H]4C[C@@H](O)[C@@H](OCCOCCN)NC(=O)[C@@H]5[C@@H](O)[C@@H](C)CN5C(=O)[C@H]([C@@H](C)O)NC(=O)[C@H]([C@H](O)[C@@H](O)c5ccc(O)cc5)NC(=O)[C@@H]5C[C@@H](O)CN5C(=O)[C@H]([C@@H](C)O)NC4=O)cc3)cc2)cc1 [Compound 3] |  |  |  |  |  |  |  |  |  |  |  |  | 0.627 L/kg | 33.7 h | below the limit of detection for at least one of the doses |  | 
CCCCCOc1ccc(-c2ccc(-c3ccc(C(=O)N[C@H]4C[C@@H](O)[C@@H](OCCOCCO)NC(=O)[C@@H]5[C@@H](O)[C@@H](C)CN5C(=O)[C@H]([C@@H](C)O)NC(=O)[C@H]([C@H](O)[C@@H](O)c5ccc(O)cc5)NC(=O)[C@@H]5C[C@@H](O)CN5C(=O)[C@H]([C@@H](C)O)NC4=O)cc3)cc2)cc1 [Compound 4] |  |  |  |  |  |  |  |  |  |  |  |  | 0.361 L/kg | 28.9 h | below the limit of detection for at least one of the doses | statistically significant (P < 0.01) reductions in fungal burden at all doses | 
CCCCCOc1ccc(-c2ccc(-c3ccc(C(=O)N[C@H]4C[C@@H](O)[C@@H](NCCNCCO)NC(=O)[C@@H]5[C@@H](O)[C@@H](C)CN5C(=O)[C@H]([C@@H](C)O)NC(=O)[C@H]([C@H](O)[C@@H](O)c5ccc(O)cc5)NC(=O)[C@@H]5C[C@@H](O)CN5C(=O)[C@H]([C@@H](C)O)NC4=O)cc3)cc2)cc1 [Compound 5] |  |  |  |  |  |  |  |  |  |  |  |  | 0.687 L/kg | 21 h | below the limit of detection for at least one of the doses | statistically significant (P < 0.01) reductions in fungal burden at all doses | 
